Series [1] relates to K562 CRISPRi cells. The series is described as follows: Perturb-seq pooled growth measurement (sgRNA counts, growth phenotype γ, relative activity). It is filed as cell-based, human. The settings on record: for gamma_day5 / gamma_day10: pooled growth phenotype γ of the Perturb-seq sgRNA; for gamma_day5: day 5, K562 CRISPRi cells; for gamma_day10: day 10, K562 CRISPRi cells; for relative_activity_day5: γ relative to perfectly matched sgRNA (_00) of the same gene, day 5; for Perturb-seq pooled growth sgRNA counts, d5 / Perturb-seq pooled growth sgRNA counts, d10 / Perturb-seq pooled growth sgRNA counts, T0: sequencing read counts; for Perturb-seq pooled growth sgRNA counts, d5: 5 days of growth (day seven after transduction); for Perturb-seq pooled growth sgRNA counts, d10: 10 days of growth (day twelve after transduction); for Perturb-seq pooled growth sgRNA counts, T0: T0 = day two after transduction. A digest of the protocol:
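CRISPRi K562 cells from the Perturb-seq transduced pool; 500,000-cell samples taken days two, seven and twelve post-transduction. sgRNA amplicons from genomic DNA sequenced; growth phenotypes from normalized sgRNA abundances at days seven and twelve versus day two. Relative activity assigned from day seven (five days' growth).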

For series [2], the system named is K562 CRISPRi cells. The series is described as above. Particulars: γ relative to perfectly matched sgRNA (_00) of the same gene, day 10. It is filed as cell-based, human.

In the series on K562 CRISPRi cells [1], “ALDOA_ + _30077139.23-P1P2_00 (guide GGTCACCAGGACCCCTTCTG; listed as DNA, chemistry not fully specified)” registered a gamma_day5 of −0.4127, a gamma_day10 of −0.3665 and a relative_activity_day5 of 1. The substance further showed a relative_activity_day10 in the series on K562 CRISPRi cells [2] of 1.
On to “ALDOA_ + _30077139.23-P1P2_06 (guide GGTCACCAGGATCCCTTCTG; listed as DNA, chemistry not fully specified)”, for which, in the series with K562 CRISPRi cells [1], the gamma_day5 was −0.3967, the gamma_day10 was −0.3485 and the relative_activity_day5 came out at 0.9611. In the series with K562 CRISPRi cells [2], this substance yielded a relative_activity_day10 of 0.951.
For “ALDOA_ + _30077139.23-P1P2_07 (guide GGTCACCAGGCCCCCTTCTG; listed as DNA, chemistry not fully specified)”, in that order: −0.3609, −0.3351, 0.8744 and 0.9143.
For “ALDOA_ + _30077139.23-P1P2_13 (guide GGTCACCAGGACCCCTTTTG; listed as DNA, chemistry not fully specified)”, in that order: 0.01706, −0.0002203, −0.04134 and 0.0006011.
On the same counts, the results for “ALDOA_ + _30077139.23-P1P2_14 (guide GGTCACCAGGACCGCTTCTG; listed as DNA, chemistry not fully specified)” are −0.1752, −0.1566, 0.4246 and 0.4274.
Regarding “ATP5E_ −_57607036.23-P1P2_00 (guide GGTGTCCAGGGGCACTCTGT; listed as DNA, chemistry not fully specified)”, in the series on K562 CRISPRi cells [1], the gamma_day5 was −0.1769, the gamma_day10 was −0.2247 and the relative_activity_day5 amounted to 1. This substance gave a relative_activity_day10 in the series with K562 CRISPRi cells [2] of 1.
In the series on K562 CRISPRi cells [1], “ATP5E_ −_57607036.23-P1P2_01 (guide GGTGTCCTGGGGCACTCTGT; listed as DNA, chemistry not fully specified)” had a gamma_day5 of −0.2097, a gamma_day10 of −0.2284 and a relative_activity_day5 of 1.185. In the series on K562 CRISPRi cells [2], this substance returned a relative_activity_day10 of 1.016.
For “ATP5E_ −_57607036.23-P1P2_04 (guide GGTGTCCAGGAGCACTCTGT; listed as DNA, chemistry not fully specified)”, in that order: −0.09793, −0.1204, 0.5536 and 0.5358.
In the series with K562 CRISPRi cells [1], “ATP5E_ −_57607036.23-P1P2_14 (guide GGTGTCCAGGGGCACTGTGT; listed as DNA, chemistry not fully specified)” registered a gamma_day5 of −0.01233, a gamma_day10 of −0.03506 and a relative_activity_day5 of 0.0697. The substance also displayed a relative_activity_day10 with K562 CRISPRi cells [2] of 0.156.
In the series on K562 CRISPRi cells [1], “ATP5E_ −_57607036.23-P1P2_16 (guide GGTGTCCAGGGGCGCTCTGT; listed as DNA, chemistry not fully specified)” displayed a gamma_day5 of −0.1616, a gamma_day10 of −0.1656 and a relative_activity_day5 of 0.9135. This substance also yielded a relative_activity_day10 in the series on K562 CRISPRi cells [2] of 0.7368.
For “BCR_ + _23523092.23-P1P2_00 (guide GCGCGCGGGGCCCGTCTCAG; listed as DNA, chemistry not fully specified)”, in that order: −0.8426, −0.5068, 1 and 1.
For “BCR_ + _23523092.23-P1P2_04 (guide GCGCGCGGAGCCCGTCTCAG; listed as DNA, chemistry not fully specified)”, in that order: −0.7401, −0.418, 0.8783 and 0.8249.
On the same counts, the results for “BCR_ + _23523092.23-P1P2_05 (guide GCGCGCGGCGCCCGTCTCAG; listed as DNA, chemistry not fully specified)” are −0.3535, −0.2247, 0.4196 and 0.4434.
In the series with K562 CRISPRi cells [1], “BCR_ + _23523092.23-P1P2_07 (guide GCGCGCGGGGCTCGTCTCAG; listed as DNA, chemistry not fully specified)” showed a gamma_day5 of −0.8707, a gamma_day10 of −0.4869 and a relative_activity_day5 of 1.033. The substance further had a relative_activity_day10 in the series with K562 CRISPRi cells [2] of 0.9607.
In the series with K562 CRISPRi cells [1], “BCR_ + _23523092.23-P1P2_13 (guide GCGCGCGGGGCCCATCTCAG; listed as DNA, chemistry not fully specified)” came in with a gamma_day5 of −0.2183, a gamma_day10 of −0.1615 and a relative_activity_day5 of 0.2591. In addition, the relative_activity_day10 in the series on K562 CRISPRi cells [2] stood at 0.3187.
For “BCR_ + _23523092.23-P1P2_15 (guide GCGCGCGGGGCCCGTCGCAG; listed as DNA, chemistry not fully specified)”, in that order: −0.2314, −0.1773, 0.2747 and 0.3498.
For “CAD_ + _27440280.23-P1P2_00 (guide GGCTGGAGAGAAGCCGGGCG; listed as DNA, chemistry not fully specified)”, in that order: −0.7714, −0.684, 1 and 1.
On to “CAD_ + _27440280.23-P1P2_03 (guide GGCTGGTGAGAAGCCGGGCG; listed as DNA, chemistry not fully specified)”, for which, in the series with K562 CRISPRi cells [1], the gamma_day5 is reported as −0.7687, the gamma_day10 was −0.6267 and the relative_activity_day5 came out at 0.9965. For the same substance, the relative_activity_day10 in the series on K562 CRISPRi cells [2] turned out to be 0.9162.
With “CAD_ + _27440280.23-P1P2_06 (guide GGCTGGAGAGTAGCCGGGCG; listed as DNA, chemistry not fully specified)”, in the series on K562 CRISPRi cells [1], the gamma_day5 is −0.3975, the gamma_day10 is listed as −0.3141 and the relative_activity_day5 is reported as 0.5153. Besides, the relative_activity_day10 in the series with K562 CRISPRi cells [2] was 0.4592.
On the same counts, the results for “CAD_ + _27440280.23-P1P2_07 (guide GGCTGGAGCGAAGCCGGGCG; listed as DNA, chemistry not fully specified)” are −0.6026, −0.4659, 0.7812 and 0.6811.
On to “CAD_ + _27440280.23-P1P2_13 (guide GGCTGGAGAGAAGCCTGGCG; listed as DNA, chemistry not fully specified)”, for which, in the series on K562 CRISPRi cells [1], the gamma_day5 is recorded as −0.1861, the gamma_day10 is on record as −0.1648 and the relative_activity_day5 is listed as 0.2413. Moreover, in the series on K562 CRISPRi cells [2], the relative_activity_day10 is 0.241.
For “CDC23_ −_137548987.23-P1P2_00 (guide GACAGCCACCGGGACCATGG; listed as DNA, chemistry not fully specified)”, in that order: −1.176, −0.6584, 1 and 1.
Consider “CDC23_ −_137548987.23-P1P2_02 (guide GACAGCTACCGGGACCATGG; listed as DNA, chemistry not fully specified)”, for which, in the series on K562 CRISPRi cells [1], the gamma_day5 was −1.087, the gamma_day10 is −0.5705 and the relative_activity_day5 came out at 0.9238. In addition, the relative_activity_day10 in the series on K562 CRISPRi cells [2] was 0.8665.
For “CDC23_ −_137548987.23-P1P2_04 (guide GACAGCCAACGGGACCATGG; listed as DNA, chemistry not fully specified)”, in that order: −0.8887, −0.5364, 0.7556 and 0.8148.
On the same counts, the results for “CDC23_ −_137548987.23-P1P2_08 (guide GACAGCCATCGGGACCATGG; listed as DNA, chemistry not fully specified)” are −0.9559, −0.5501, 0.8128 and 0.8355.
Regarding “non-targeting_00802: non-targeting negative control sgRNA, GCACGACGCTCCGGCACGCG, SEQ ID NO: 169 (listed as DNA, chemistry not fully specified) [reference compound]”, in the series on K562 CRISPRi cells [1], the “Perturb-seq pooled growth sgRNA counts, d5” value is listed as 16759; the “Perturb-seq pooled growth sgRNA counts, d10” value came to 27842; the “Perturb-seq pooled growth sgRNA counts, T0” value is reported as 7096.
Consider “non-targeting_01040: non-targeting negative control sgRNA, GTACGGCATGGCGCACTGCG, SEQ ID NO: 170 (listed as DNA, chemistry not fully specified) [reference compound]”, for which, in the series on K562 CRISPRi cells [1], the “Perturb-seq pooled growth sgRNA counts, d5” value amounted to 0; the “Perturb-seq pooled growth sgRNA counts, d10” value was 0; the “Perturb-seq pooled growth sgRNA counts, T0” value is on record as 0.

Values taken from patent US20220259593A1, “CONTROL OF MAMMALIAN GENE DOSAGE USING CRISPR” (The Regents of the University of California, priority 2019, published 2022).
